Key:
Assay type in all cases: cell-based
Details in all cases: Table D16
CK1a = target: T1, CK1a (Homo sapiens, UniProt P48729+Q96SW2); assay: Western blot degradation of CK1a (hPBMC)
T1 construct: evaluate the effects of the compounds of the present disclosure on the expression of target proteins in cells; endogenous in cells; host or cells: hPBMC
Protocol: (§1) Conventional Western blot assay was performed to evaluate the effects of the compounds of the present disclosure on the expression of target proteins in cells.
(§2) (1) Cell Seeding and Protein Harvesting: The selected cells were processed according to the cell seeding procedure and protein harvesting procedure in Table III-2. Table III-2 Cell Seeding and Protein Harvesting Procedures
(§3) (2) To the collected supernatant, 5X SDS sample loading buffer was added, followed by denaturation at 95°C for 5 minutes. The denatured samples were then separated by SDS-PAGE electrophoresis on a polyacrylamide gel. Proteins were transferred to a nitrocellulose membrane (0.45 µm NC membrane), blocked with blocking buffer at room temperature for 1 hour, and subjected to antibody incubation and development procedures according to the antibody manufacturer's instructions (Cell Signaling Technology).
(§4) Half-Maximal Degradation Concentration value (the drug concentration required for degrading proteins by 50%, abbreviated as DC50) reads method: comparing the grayscale values of Western blot bands from drug-treated samples with those from blank DMSO-treated controls, and identifying the drug concentration range at which the grayscale value is half that of the DMSO-treated control bands.
(§5) DC50 values can be calculated using ImageJ software to measure grayscale values of Western blot bands from drug-treated samples. The concentration-response curve is fitted to estimate the drug concentration corresponding to half the grayscale value.
(§6) Target protein remaining (%) refers to the percentage of target protein remaining in hPBMC cells after treatment with protein degrader compounds.
(§7) Calculation method for target protein remaining (%): Use ImageJ software to measure grayscale values of Western blot bands from drug (protein degrader)-treated samples. The grayscale value of drug-treated bands is divided by that of internal control protein bands, and the resulting quotient is normalized to obtain the relative percentage of remaining target protein after protein degrader treatment.
(§8) Target protein degradation rate (%) = 100% - target protein remaining (%).

GSPT1 = target: T2, GSPT1 (Homo sapiens, UniProt P15170+Q96SW2); assay: Western blot degradation of GSPT1 (hPBMC)
T2 construct: evaluate the effects of the compounds of the present disclosure on the expression of target proteins in cells; endogenous in cells; host or cells: hPBMC
Protocol: as §1, §2, §3, §4, §5, §6, §7, §8

WEE1 = target: T3, WEE1 (Homo sapiens, UniProt P30291+Q96SW2); assay: Western blot degradation of WEE1 (hPBMC)
T3 construct: evaluate the effects of the compounds of the present disclosure on the expression of target proteins in cells; endogenous in cells; host or cells: hPBMC
T3 sequence (P30291 whole entry): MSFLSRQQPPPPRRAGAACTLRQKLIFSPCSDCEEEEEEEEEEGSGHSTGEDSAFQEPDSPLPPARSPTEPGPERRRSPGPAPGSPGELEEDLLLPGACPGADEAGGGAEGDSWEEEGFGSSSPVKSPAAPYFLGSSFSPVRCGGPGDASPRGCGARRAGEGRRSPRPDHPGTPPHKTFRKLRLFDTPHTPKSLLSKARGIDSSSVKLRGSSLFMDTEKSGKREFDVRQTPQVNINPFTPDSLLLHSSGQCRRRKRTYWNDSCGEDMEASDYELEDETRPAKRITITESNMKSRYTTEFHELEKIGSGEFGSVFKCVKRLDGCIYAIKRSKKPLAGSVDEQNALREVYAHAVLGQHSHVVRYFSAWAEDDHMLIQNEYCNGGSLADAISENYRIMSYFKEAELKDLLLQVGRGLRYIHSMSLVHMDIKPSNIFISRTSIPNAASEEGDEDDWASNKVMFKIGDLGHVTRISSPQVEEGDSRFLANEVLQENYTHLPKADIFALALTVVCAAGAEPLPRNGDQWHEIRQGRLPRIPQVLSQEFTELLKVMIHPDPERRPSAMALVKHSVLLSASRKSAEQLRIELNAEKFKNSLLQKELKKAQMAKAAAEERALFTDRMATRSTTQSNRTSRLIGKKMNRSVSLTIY
T3 sequence (Q96SW2 whole entry): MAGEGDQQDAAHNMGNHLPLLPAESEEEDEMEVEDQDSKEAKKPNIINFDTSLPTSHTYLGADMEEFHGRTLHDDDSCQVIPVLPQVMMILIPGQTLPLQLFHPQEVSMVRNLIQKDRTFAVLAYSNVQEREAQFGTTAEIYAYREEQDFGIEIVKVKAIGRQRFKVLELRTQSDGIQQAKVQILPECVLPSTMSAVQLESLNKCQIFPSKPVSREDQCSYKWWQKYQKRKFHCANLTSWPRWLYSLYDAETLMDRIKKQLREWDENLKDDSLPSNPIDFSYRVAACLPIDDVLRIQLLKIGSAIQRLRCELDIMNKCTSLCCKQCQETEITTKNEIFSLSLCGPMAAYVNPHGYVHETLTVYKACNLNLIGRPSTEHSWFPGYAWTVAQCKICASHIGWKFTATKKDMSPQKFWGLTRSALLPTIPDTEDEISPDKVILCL
T3 sequence (Q16531 whole entry partner): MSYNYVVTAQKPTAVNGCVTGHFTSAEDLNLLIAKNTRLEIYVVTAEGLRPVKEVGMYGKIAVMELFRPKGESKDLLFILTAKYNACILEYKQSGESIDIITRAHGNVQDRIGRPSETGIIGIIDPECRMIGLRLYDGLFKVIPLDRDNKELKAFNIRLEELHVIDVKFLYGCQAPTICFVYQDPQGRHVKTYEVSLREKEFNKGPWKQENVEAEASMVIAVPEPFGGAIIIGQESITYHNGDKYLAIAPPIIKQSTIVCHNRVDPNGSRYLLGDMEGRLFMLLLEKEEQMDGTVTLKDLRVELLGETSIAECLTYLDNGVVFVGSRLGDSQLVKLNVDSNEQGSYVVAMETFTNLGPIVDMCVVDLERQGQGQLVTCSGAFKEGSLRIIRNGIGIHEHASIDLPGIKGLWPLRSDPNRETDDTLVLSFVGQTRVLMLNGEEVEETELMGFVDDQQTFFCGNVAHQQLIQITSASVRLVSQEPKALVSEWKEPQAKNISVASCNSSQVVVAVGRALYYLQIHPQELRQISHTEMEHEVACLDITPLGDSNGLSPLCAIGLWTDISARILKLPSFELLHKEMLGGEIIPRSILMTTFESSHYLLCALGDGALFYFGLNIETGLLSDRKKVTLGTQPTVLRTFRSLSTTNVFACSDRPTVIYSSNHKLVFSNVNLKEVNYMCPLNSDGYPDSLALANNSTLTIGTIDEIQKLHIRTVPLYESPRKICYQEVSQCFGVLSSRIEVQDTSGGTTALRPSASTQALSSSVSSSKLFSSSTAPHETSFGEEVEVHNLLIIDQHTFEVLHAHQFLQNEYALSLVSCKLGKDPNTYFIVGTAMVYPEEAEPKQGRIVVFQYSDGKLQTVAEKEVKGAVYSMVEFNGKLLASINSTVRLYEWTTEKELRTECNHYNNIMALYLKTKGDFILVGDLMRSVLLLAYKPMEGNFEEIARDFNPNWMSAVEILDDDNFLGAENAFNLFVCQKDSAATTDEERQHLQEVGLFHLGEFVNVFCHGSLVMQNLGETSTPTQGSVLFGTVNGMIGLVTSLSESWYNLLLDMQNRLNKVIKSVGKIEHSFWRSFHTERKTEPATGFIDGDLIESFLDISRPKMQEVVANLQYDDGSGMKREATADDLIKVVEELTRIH
Protocol: as §1, §2, §3, §4, §5, §6, §7, §8

IKZF2 = target: T4, IKZF2 (Homo sapiens, UniProt Q96SW2+Q9UKS7); assay: Western blot degradation of IKZF2 (hPBMC)
T4 construct: evaluate the effects of the compounds of the present disclosure on the expression of target proteins in cells; endogenous in cells; host or cells: hPBMC
T4 sequence (Q9UKS7 whole entry): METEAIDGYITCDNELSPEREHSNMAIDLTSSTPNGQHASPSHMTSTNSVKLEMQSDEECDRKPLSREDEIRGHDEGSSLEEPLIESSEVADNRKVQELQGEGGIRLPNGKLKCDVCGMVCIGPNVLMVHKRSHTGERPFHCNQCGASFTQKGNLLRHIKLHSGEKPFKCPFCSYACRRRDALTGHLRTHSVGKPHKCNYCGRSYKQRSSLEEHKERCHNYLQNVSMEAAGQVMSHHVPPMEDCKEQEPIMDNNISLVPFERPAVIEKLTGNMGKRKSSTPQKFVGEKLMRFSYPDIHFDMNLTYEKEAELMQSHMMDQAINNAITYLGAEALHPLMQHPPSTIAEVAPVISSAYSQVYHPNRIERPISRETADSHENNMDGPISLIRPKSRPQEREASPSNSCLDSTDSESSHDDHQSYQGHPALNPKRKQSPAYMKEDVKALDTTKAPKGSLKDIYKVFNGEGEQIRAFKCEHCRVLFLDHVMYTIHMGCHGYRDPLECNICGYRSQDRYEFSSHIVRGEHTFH
T4 sequence (Q96SW2 whole entry): as the sequence (Q96SW2 whole entry) above
T4 sequence (Q16531 whole entry partner): as the sequence (Q16531 whole entry partner) above
Protocol: as §1, §2, §3, §4, §5, §6, §7, §8

IKZF3 = target: T5, IKZF3 (Homo sapiens, UniProt Q96SW2+Q9UKT9); assay: Western blot degradation of IKZF3 (hPBMC)
T5 construct: evaluate the effects of the compounds of the present disclosure on the expression of target proteins in cells; endogenous in cells; host or cells: hPBMC
T5 sequence (Q9UKT9 whole entry): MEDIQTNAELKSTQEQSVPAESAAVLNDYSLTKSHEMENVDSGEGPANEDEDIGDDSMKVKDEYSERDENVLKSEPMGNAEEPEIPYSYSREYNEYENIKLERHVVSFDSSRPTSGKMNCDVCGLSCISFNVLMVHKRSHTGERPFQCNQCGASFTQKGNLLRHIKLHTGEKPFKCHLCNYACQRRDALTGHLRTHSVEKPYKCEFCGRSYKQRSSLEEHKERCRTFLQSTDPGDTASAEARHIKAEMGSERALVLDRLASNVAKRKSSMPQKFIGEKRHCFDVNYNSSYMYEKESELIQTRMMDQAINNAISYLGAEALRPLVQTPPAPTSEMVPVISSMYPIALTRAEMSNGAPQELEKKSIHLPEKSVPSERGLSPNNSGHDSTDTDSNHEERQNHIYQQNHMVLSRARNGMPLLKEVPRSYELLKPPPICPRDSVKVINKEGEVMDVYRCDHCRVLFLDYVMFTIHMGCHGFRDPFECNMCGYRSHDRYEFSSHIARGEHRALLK
T5 sequence (Q96SW2 whole entry): as the sequence (Q96SW2 whole entry) above
T5 sequence (Q16531 whole entry partner): as the sequence (Q16531 whole entry partner) above
Protocol: as §1, §2, §3, §4, §5, §6, §7, §8

IKZF1 = target: T6, IKZF1 (Homo sapiens, UniProt Q13422+Q96SW2); assay: Western blot degradation of IKZF1 (hPBMC)
T6 construct: evaluate the effects of the compounds of the present disclosure on the expression of target proteins in cells; endogenous in cells; host or cells: hPBMC
T6 sequence (Q13422 whole entry): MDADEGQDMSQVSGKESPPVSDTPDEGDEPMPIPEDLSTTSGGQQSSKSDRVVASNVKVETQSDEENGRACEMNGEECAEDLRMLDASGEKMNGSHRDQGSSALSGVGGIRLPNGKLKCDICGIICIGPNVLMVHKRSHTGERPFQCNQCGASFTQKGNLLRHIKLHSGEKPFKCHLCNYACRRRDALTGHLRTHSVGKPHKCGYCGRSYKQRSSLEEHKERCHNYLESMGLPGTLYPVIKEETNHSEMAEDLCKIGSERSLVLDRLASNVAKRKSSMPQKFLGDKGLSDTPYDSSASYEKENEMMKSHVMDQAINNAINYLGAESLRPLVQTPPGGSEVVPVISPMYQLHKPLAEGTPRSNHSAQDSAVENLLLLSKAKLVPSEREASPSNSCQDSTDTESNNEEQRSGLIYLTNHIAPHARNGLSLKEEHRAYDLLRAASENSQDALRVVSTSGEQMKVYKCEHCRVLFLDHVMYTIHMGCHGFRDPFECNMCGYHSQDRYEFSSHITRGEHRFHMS
T6 sequence (Q96SW2 whole entry): as the sequence (Q96SW2 whole entry) above
T6 sequence (Q16531 whole entry partner): as the sequence (Q16531 whole entry partner) above
Protocol: as §1, §2, §3, §4, §5, §6, §7, §8

T1 sequence (P48729 whole entry): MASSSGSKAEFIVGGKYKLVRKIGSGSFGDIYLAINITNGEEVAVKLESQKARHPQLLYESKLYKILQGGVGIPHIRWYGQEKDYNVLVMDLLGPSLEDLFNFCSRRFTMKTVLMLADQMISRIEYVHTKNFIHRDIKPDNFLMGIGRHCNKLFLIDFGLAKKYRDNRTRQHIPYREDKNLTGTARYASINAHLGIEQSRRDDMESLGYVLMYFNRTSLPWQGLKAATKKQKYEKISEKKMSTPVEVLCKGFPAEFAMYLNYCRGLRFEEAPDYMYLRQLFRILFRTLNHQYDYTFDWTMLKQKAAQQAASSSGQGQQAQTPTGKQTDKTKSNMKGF
T1 sequence (Q96SW2 whole entry): as the sequence (Q96SW2 whole entry) above
T1 sequence (Q16531 whole entry partner): as the sequence (Q16531 whole entry partner) above

Row | Structure (SMILES) | Degradation of substrate protein CKla (substrate protein remaining %) (CK1a) | Degradation of substrate protein GSPT1 (substrate protein remaining %) (GSPT1) | Degradation of substrate protein WEE1 (substrate protein remaining %) (WEE1) | Degradation of substrate protein IKZF2 (substrate protein remaining %) (IKZF2) | Degradation of substrate protein IKZF3 (substrate protein remaining %) (IKZF3) | Degradation of substrate protein IKZF1 (substrate protein remaining %) (IKZF1)
1 | O=C1CCN(c2ccc(CCl)cn2)C(=O)N1 [GT-07009, 1-(5-(Chloromethyl)pyridin-2-yl)dihydropyrimidine-2,4(1H,3H)-dione] | A (A is defined as 0% ≤ substrate protein remaining % ≤ 80%) | B (B is defined as substrate protein remaining % > 80%) | B (B is defined as substrate protein remaining % > 80%) | B (B is defined as substrate protein remaining % > 80%) | B (B is defined as substrate protein remaining % > 80%) | B (B is defined as substrate protein remaining % > 80%)
2 | O=C1CCC(c2ccc(CO)nc2)C(=O)N1 (stereo not drawn) [GT-07010, 3-(6-(Hydroxymethyl)pyridin-3-yl)piperidine-2,6-dione] | A (A is defined as 0% ≤ substrate protein remaining % ≤ 80%) | A (A is defined as 0% ≤ substrate protein remaining % ≤ 80%) | B (B is defined as substrate protein remaining % > 80%) | B (B is defined as substrate protein remaining % > 80%) | A (A is defined as 0% ≤ substrate protein remaining % ≤ 80%) | B (B is defined as substrate protein remaining % > 80%)
3 | NCc1ccc(N2CCC(=O)NC2=O)nc1 [GT-07012, 1-(5-(Aminomethyl)pyridin-2-yl)dihydropyrimidine-2,4(1H,3H)-dione] | B (B is defined as substrate protein remaining % > 80%) | A (A is defined as 0% ≤ substrate protein remaining % ≤ 80%) | A (A is defined as 0% ≤ substrate protein remaining % ≤ 80%) | B (B is defined as substrate protein remaining % > 80%) | A (A is defined as 0% ≤ substrate protein remaining % ≤ 80%) | B (B is defined as substrate protein remaining % > 80%)
4 | NCc1ccc(N2CCC(=O)NC2=O)cn1 [GT-07048, 1-(6-(Aminomethyl)pyridin-3-yl)dihydropyrimidine-2,4(1H,3H)-dione] | A (A is defined as 0% ≤ substrate protein remaining % ≤ 80%) | A (A is defined as 0% ≤ substrate protein remaining % ≤ 80%) | B (B is defined as substrate protein remaining % > 80%) | A (A is defined as 0% ≤ substrate protein remaining % ≤ 80%) | A (A is defined as 0% ≤ substrate protein remaining % ≤ 80%) | A (A is defined as 0% ≤ substrate protein remaining % ≤ 80%)
5 | O=C1CCC(c2cnc(F)c(CO)c2)C(=O)N1 (stereo not drawn) [GT-07074, 3-(6-Fluoro-5-(hydroxymethyl)pyridin-3-yl)piperidine-2,6-dione] | B (B is defined as substrate protein remaining % > 80%) | A (A is defined as 0% ≤ substrate protein remaining % ≤ 80%) | B (B is defined as substrate protein remaining % > 80%) | A (A is defined as 0% ≤ substrate protein remaining % ≤ 80%) | A (A is defined as 0% ≤ substrate protein remaining % ≤ 80%) | B (B is defined as substrate protein remaining % > 80%)
6 | O=C1CCC(c2ccc(CO)cn2)C(=O)N1 (stereo not drawn) [GT-07075, 3-(5-(Hydroxymethyl)pyridin-2-yl)piperidine-2,6-dione] | B (B is defined as substrate protein remaining % > 80%) | A (A is defined as 0% ≤ substrate protein remaining % ≤ 80%) | B (B is defined as substrate protein remaining % > 80%) | A (A is defined as 0% ≤ substrate protein remaining % ≤ 80%) | A (A is defined as 0% ≤ substrate protein remaining % ≤ 80%) | B (B is defined as substrate protein remaining % > 80%)
7 | O=C1CCC(Nc2ncccc2CO)C(=O)N1 (stereo not drawn) [GT-07197, 3-((3-(Hydroxymethyl)pyridin-2-yl)amino)piperidine-2,6-dione] | A (A is defined as 0% ≤ substrate protein remaining % ≤ 80%) | A (A is defined as 0% ≤ substrate protein remaining % ≤ 80%) | B (B is defined as substrate protein remaining % > 80%) | B (B is defined as substrate protein remaining % > 80%) | B (B is defined as substrate protein remaining % > 80%) | B (B is defined as substrate protein remaining % > 80%)
8 | O=C1CCC(c2ncc(CO)cc2F)C(=O)N1 (stereo not drawn) [GT-07443, 3-(3-Fluoro-5-(hydroxymethyl)pyridin-2-yl)piperidine-2,6-dione] | A (A is defined as 0% ≤ substrate protein remaining % ≤ 80%) | A (A is defined as 0% ≤ substrate protein remaining % ≤ 80%) | A (A is defined as 0% ≤ substrate protein remaining % ≤ 80%) | A (A is defined as 0% ≤ substrate protein remaining % ≤ 80%) | B (B is defined as substrate protein remaining % > 80%) | A (A is defined as 0% ≤ substrate protein remaining % ≤ 80%)
9 | O=C1CCC(c2cc(CO)c(F)cn2)C(=O)N1 (stereo not drawn) [GT-07444, 3-(5-Fluoro-4-(hydroxymethyl)pyridin-2-yl)piperidine-2,6-dione] | B (B is defined as substrate protein remaining % > 80%) | B (B is defined as substrate protein remaining % > 80%) | B (B is defined as substrate protein remaining % > 80%) | A (A is defined as 0% ≤ substrate protein remaining % ≤ 80%) | A (A is defined as 0% ≤ substrate protein remaining % ≤ 80%) | B (B is defined as substrate protein remaining % > 80%)
10 | CC(C)(C)[Si](C)(C)OCc1cncc(NC2CCC(=O)NC2=O)c1 (stereo not drawn) [GT-07449, 3-((5-(((tert-Butyldimethylsilyl)oxy)methyl)pyridin-3-yl)amino)piperidine-2,6-dione] | B (B is defined as substrate protein remaining % > 80%) | B (B is defined as substrate protein remaining % > 80%) | B (B is defined as substrate protein remaining % > 80%) | A (A is defined as 0% ≤ substrate protein remaining % ≤ 80%) | B (B is defined as substrate protein remaining % > 80%) | B (B is defined as substrate protein remaining % > 80%)
11 | O=C1CCN(c2cnc(F)c(CO)c2)C(=O)N1 [GT-07556, 1-(6-Fluoro-5-(hydroxymethyl)pyridin-3-yl)dihydropyrimidine-2,4(1H,3H)-dione] | A (A is defined as 0% ≤ substrate protein remaining % ≤ 80%) | B (B is defined as substrate protein remaining % > 80%) | A (A is defined as 0% ≤ substrate protein remaining % ≤ 80%) | B (B is defined as substrate protein remaining % > 80%) | A (A is defined as 0% ≤ substrate protein remaining % ≤ 80%) | A (A is defined as 0% ≤ substrate protein remaining % ≤ 80%)

From EP4678638A1, “NEW E3 UBIQUITIN LIGASE LIGAND, PROTEIN DEGRADATION AGENT AND USE THEREOF” (priority 2023, dated 2024)
